{"source": "patent US9844543B2", "about": "“Method of treating or preventing hyperlipidemia with caffeamide derivatives” (priority 2015, dated 2017)", "format_in_all_cases": "in vivo, C57BL/6J mice", "key": {"[1]": {"assay": "Body weight, weight gain and absolute tissue weights in high-fat diet-fed mice", "method": "(§1) All animal procedures were performed as per guidelines provided by the Institutional Animal Care and Use Committee of Central Taiwan University of Science and Technology. Firstly, C57BL/6J mice (4-5 weeks old) were purchased from the National Laboratory Animal Breeding and Research Center, National Science Council, Taiwan, and were maintained on a 12-hour light/dark cycle (light cycle: 7 a.m. to 7 p.m.). Seven days after acclimation, the C57BL/6J mice were divided randomly into two groups: the control group (CON, n=9) was fed with low-fat diet (Diet 12450B, Research Diets, Inc., New Brunswick, N.J. 08901, USA), whereas the experimental group (n=36) was fed with a 45% high-fat diet (Diet 12451, Research Diets, Inc., New Brunswick, N.J. 08901, USA) for 12 weeks. The low-fat diet was composed of protein 20%, carbohydrate 70% and fat 10%, whereas the high-fat diet was composed of protein 20%, carbohydrate 35%, and fat 45% (of total energy, % kcal). After 8-week diet-induction period, the high-fat treated mice were randomly subdivided into four groups (n=9 per group), namely, control group (CON), high-fat control group (HF), TS group (including T1 and T2, representing mice treated with the compound of the present invention using a dosage of 10 mg/kg/day and 20 mg/kg/day, respectively), rosiglitazone treated group (Rosi; 1% methylcellulose 10 mg/kg body weight, obtained from GlaxoSmithKline, product number: BRL49653 C). TS and Rosi group were administrated through oral gavage one time per day from the 9th to the 12th week of the experiment while the mice were still on the high-fat diet. On the other hand, CON and HF groups were treated with vehicle only. The body weight was measured weekly throughout the experimentation. By the end of the experimentation, food was deprived from the mice (from 10 p.m. to 10 a.m.) On the next day (the 85th day), all mice were sacrificed for blood and tissue collection and analysis. The mice were untreated with TS or Rosi at the 85th day. Livers and white adipose tissue (WATs, including epididymal mesenteric, and retroperitoneal WAT) were excised according to the defined anatomical landmarks, and the weight of the tissues was measured. Tissues were immediately frozen using liqid nitrogen and then kept at −80° C. for the analysis of target gene expression. Heparin (30 units/mL, Sigma) was added into blood sample. Plasma samples were collected by centrifugation at […] for 15 minutes at 4° C. The separation of the plasma was finished within 30 minutes. Plasma was obtained for leptin assay.\nBody weight of mice was monitored and measured daily at the same time throughout the experimentation. The differences between the body weight of the next day and the former day is defined as body weight gain. The pellet food was weighed and followed by being placed in the cage food container. Unconsumed pellet high-fat food was discarded each day and fresh pellet of high-fat diet was provided to ensure consistent food quality throughout the experimentation. The high-fat food was stored at 4° C."}, "[2]": {"tested_on": "adipocytes from epididymal white adipose tissue", "assay": "Histopathology of epididymal white adipose tissue (adipocyte size)", "conditions": "high-fat diet mice, 10 mg/kg/day oral; HF 6765.87, CON 3263.78", "method": "(§2) All animal procedures were performed as per guidelines provided by the Institutional Animal Care and Use Committee of Central Taiwan University of Science and Technology. Firstly, C57BL/6J mice (4-5 weeks old) were purchased from the National Laboratory Animal Breeding and Research Center, National Science Council, Taiwan, and were maintained on a 12-hour light/dark cycle (light cycle: 7 a.m. to 7 p.m.). Seven days after acclimation, the C57BL/6J mice were divided randomly into two groups: the control group (CON, n=9) was fed with low-fat diet (Diet 12450B, Research Diets, Inc., New Brunswick, N.J. 08901, USA), whereas the experimental group (n=36) was fed with a 45% high-fat diet (Diet 12451, Research Diets, Inc., New Brunswick, N.J. 08901, USA) for 12 weeks. The low-fat diet was composed of protein 20%, carbohydrate 70% and fat 10%, whereas the high-fat diet was composed of protein 20%, carbohydrate 35%, and fat 45% (of total energy, % kcal). […] The body weight was measured weekly throughout the experimentation. […] Livers and white adipose tissue (WATs, including epididymal mesenteric, and retroperitoneal WAT) were excised according to the defined anatomical landmarks, and the weight of the tissues was measured. […]"}, "[3]": {"assay": "Measurement of hepatic lipids in high-fat diet-fed mice", "conditions": "0.01 g/kg/day oral, week 12", "method": "as §2, with “weeks.” for “weeks. The low-fat diet was composed of protein 20%, carbohydrate 70% and fat 10%, whereas the high-fat diet was composed of protein 20%, carbohydrate 35%, and fat 45% (of total energy, % kcal).”\nFor hepatic lipid extraction, a 0.375 g liver samples were homogenized with 1 mL distill water for 5 minutes. The dried pellet was finally resuspended in 0.5 mL ethanol and analyzed using a triglycerides kit as used for analyzing the serum lipids set forth above."}, "[4]": {"assay": "Blood parameters assay (TG, FFA, TC, adiponectin, leptin) in high-fat diet-fed mice", "conditions": "0.01 g/kg/day oral", "method": "as §1, with “Seven days after acclimation, the C57BL/6J mice were divided randomly into two groups: the control group (CON, n=9) was fed with low-fat diet (Diet 12450B, Research Diets, Inc., New Brunswick, N.J. 08901, USA), whereas the experimental group (n=36) was fed with a 45% high-fat diet (Diet 12451, Research Diets, Inc., New Brunswick, N.J. 08901, USA) for 12 weeks. The low-fat diet was composed of protein 20%, carbohydrate 70% and fat 10%, whereas the high-fat diet was composed of protein 20%, carbohydrate 35%, and fat 45% (of total energy, % kcal).” left out\nBlood samples (0.8 mL) were collected from the retro-orbital sinus of fasting mice and the plasma triglycerides (TG), total cholesterol (TC), and free fatty acids (FFA) were analyzed using commercial assay kits according to the manufacture's directions (Triglycerides-E test, Cholesterol-E test, and FFA-C test, Wako Pure Chemical, Osaka, Japan).\nThe levels of adiponectin and leptin were analyzed by ELISA using commercial assay kits according to manufacture's directions (mouse/rat adiponectin ELISA kit, B-Bridege International, GmbH, Germany, and mouse leptin ELISA kit, Morinaga, Yokohama, Japan)."}, "[5]": {"conditions": "0.01 g/kg/day oral gavage weeks 9-12"}}, "data": [{"smiles": "CN(CCOc1ccc(CC2SC(=O)NC2=O)cc1)c1ccccn1", "note": "(centres unmarked) [Rosi, rosiglitazone]", "values": [{"measurement": "Absolute tissue weight BAT", "setting": "[1]; [5]", "result": "0.210 ± 0.023", "unit": "g"}, {"measurement": "Absolute tissue weight MWAT", "setting": "[1]; [5]", "result": "0.238 ± 0.033", "unit": "g"}, {"measurement": "Absolute tissue weight RWAT", "setting": "[1]; [5]", "result": "0.334 ± 0.057", "unit": "g"}, {"measurement": "Absolute tissue weight Visceral fat", "setting": "[1]; [5]", "result": "1.330 ± 0.138", "unit": "g"}, {"measurement": "Absolute tissue weight EWAT", "setting": "[1]; 0.01 g/kg/day oral gavage weeks 9-12, mean ± S.E. n=9", "result": "1.003 ± 0.103", "unit": "g"}, {"measurement": "Weight gain", "setting": "[1]; 0.01 g/kg/day oral gavage weeks 9-12, week 12", "result": "0.91 ± 1.45", "unit": "g"}, {"measurement": "average area of the cut of the adipocytes (epididymal white adipose tissue)", "setting": "[2]", "result": 4600, "unit": "µm²"}, {"measurement": "Liver lipids: Total lipid", "setting": "[3]", "result": "60.2 ± 5.4", "unit": "mg/g"}, {"measurement": "Liver lipids: Triacylglycerol", "setting": "[3]", "result": "42.6 ± 5.8", "unit": "µmol/g"}, {"measurement": "Blood Adiponectin", "setting": "[4]; week 12", "result": "7.51 ± 0.53", "unit": "ng/mL"}, {"measurement": "Blood FFA", "setting": "[4]; week 12", "result": "1.52 ± 0.16", "unit": "meq/L"}, {"measurement": "Blood Leptin", "setting": "[4]; week 12", "result": "2.063 ± 0.111", "unit": "µg/mL"}, {"measurement": "Blood TC", "setting": "[4]; week 12", "result": "134.9 ± 3.5", "unit": "mg/dL"}, {"measurement": "Blood TG", "setting": "[4]; week 12, fasting", "result": "81.8 ± 5.8", "unit": "mg/dL"}]}]}
